{
  "source": "patent US20040038950A1",
  "about": "“Pharmaceutical composition for treating IL-1 related diseases or disorders” (priority 2002, published 2004)",
  "key": {"[1]": {"tested_on": "(IL-1β)-induced MMP-3 mRNA", "test": "(IL-1β)-induced MMP-3 mRNA expression in chondrocytes, RT-PCR", "type": "cell-based, human", "settings": "100 μM DHEA with IL-1β, 72 hr", "protocol": "(§1) Sixteen hours prior to a treatment, the complete culture medium was replaced with a serum-free medium. Chondrocyte alginate bead cultures were then treated with IL-1β ([…], (Calbiochem) and DHEA (0, 10, 50 or 100 μM) for 3 days.\n(§2) Total RNA from chondrocytes was extracted using RNeasy Mini Kit (QIAGEN). Reverse transcription from 1 μg of total RNA was conducted using First Strand cDNA Synthesis Kit (MBI Fermentas) according to manufacturer's recommendation with random hexamers. The resulting cDNA was then amplified by polymerase chain reaction using AccuPower PCR Premix (Bioneer, Korea) in a final volume of 20 μl using three thermocycler temperatures (30 sec at […], 30 sec at 60° C., and 30 sec at […]). All reactions were determined to be in the linear range of amplification with the cycle number ranging from 14 to 30. The PCR products were analyzed by separation on a 2% agarose gel followed by ethidium bromide staining. Following electrophoresis, photographs were taken and analyzed using a densitometric program (TINA; Raytest Isotopenmeβgerate, Germany). Integrated density values for the genes in question were then normalized to the glyceraldehyde-3-phosphate dehydrogenase (GAPDH) values for a semiquantitative assessment. After normalizing with respect to GAPDH, percentage increase or decrease was determined. Each experiment was repeated at least three times. […]"}, "[2]": {"tested_on": "patients diagnosed to have degenerative arthritis", "test": "Topical application of DHEA to arthritic patient", "type": "in vivo, human", "settings": "for resting pain score: before 14.34; for joint effusion score: before 2.12; for medial joint line tenderness score: before 2.18; for motion pain score: before 8.11; for pain at ascending/descending stairs score: before 10.87", "protocol": "Ten patients diagnosed to have degenerative arthritis were tested to investigate the therapeutic effect of DHEA in topical application. Testees had the symptoms including dolor of knee joint (resting or motion pain), swelling, deformation, tenderness, crepitation or stiffness of joint. Patients who had received intraarticular injection, steroid treatment or surgery within 1 month before this test were excluded, as well as those who had severe cardiac or liver diseases, kidney failure, gastrointestinal diseases, or poor systemic condition such as anomalotrophy. Besides, women who were pregnant or breast-feeding babies were excluded in this study.\nThe volunteers were randomly grouped into Group I and Group II, and subject to the experiment for topical application of DHEA. A portion of knee joint showing dolor symptom was coated with either 5% DHEA or PBS (phosphate buffered saline) twice a day for 1 month. Any alteration of symptom was checked prior to the application, 1 week and then again 1 month during the application regimen.\nThe severity of pain was scored ranging from 0 (most severe pain) to 20 points (no pain) at an interval of 5 points.\nIn addition, both joint effusion and medial joint-line tenderness were recorded during a physical test administered by a doctor based on the point rating scale: highness, 4; medium, 3; slightness, 2; and not found, 0.\nThe opinions on symptom were recorded as 5 categories relying on the subjective opinions of patients and the opinions of doctors regarding both dolor of patients and the results of physical tests: superiority, goodness, mediocrity, poorness and exceeding poorness.\nIn addition, the assessment regarding the level of improvement on symptoms was recorded in accordance with the following criteria: 3-step improvement, “exceeding improvement”; 2-step improvement, “improvement”; 1-step improvement, “slight improvement”; “no change”; and “aggravation”."}, "MMP-1": {"tested_on": "MMP-1", "test": "Western blot of MMP-1 in chondrocyte lysates", "type": "cell-based, human", "settings": "0, 10 or 100 μ DHEA, three days", "protocol": "Chondrocytes were isolated from the knee joint of patient undergoing a knee replacement due to osteoarthritis. Cartilage was digested with 0.2% protease Type XIV (Sigma) for 1 hour, followed by 3-hour incubation with 0.2% collagenase Type IA (Sigma) at 37° C. Following the incubation, the undigested cartilage fragments were removed using a 70 μm Nylon sieve. Chondrocytes were washed with DPBS and maintained in monolayer culture for 7 days in Dulbecco's modified Eagle's medium (DMEM; Life Technologies Inc.) which contained 10% fetal bovine serum (FBS; Life Technologies), 100 units/ml penicillin-streptomycin (Life Technologies) and 25 μg/ml L-ascorbic acid (Sigma). All experiments were performed with primary or first passage cells. The preparation of chondrocytes in alginate beads was carried out with 4×10^6 cells per 1 ml of alginate. Alginate cultures were maintained for 7 days at 37° C., 5% CO2 and 95% humidity and incubated with various concentrations of DHEA (0, 10, 50 or 100 μM) for a varing period of time. DHEA was purchased from Sigma and used after dissolving either in ethanol or dimethyl sulfoxide (DMSO). […]\nTo investigate the effect of DHEA on the protein concentration, Western blot analysis was performed. […] Protein concentration of the supernatant was determined by Bio-Rad protein assay (Bio-Rad, USA) using bovine serum albumin (BSA) as a standard. […]"}, "[3]": {"tested_on": "(IL-1β)-induced Cox-2 gene expression", "test": "(IL-1β)-induced Cox-2 gene expression in chondrocytes", "type": "cell-based, human", "settings": "10, 50, 100 μM with IL-1β, 72 hr", "protocol": "as §1, §2"}, "[4]": {"settings": "Group I (5 patients), 1 month after application"}, "[5]": {"settings": "Group I, topical, 1 month after application"}, "[6]": {"settings": "Group I, topical, 1 week after application"}, "[7]": {"settings": "Group I, topical, 1 week and 1 month vs before application"}},
  "data": [
    {"molecule": "C[C@]12CC[C@H](O)CC1=CC[C@@H]1[C@@H]2CC[C@]2(C)C(=O)CC[C@@H]12", "note": "[DHEA, dehyroepiandrosterone]", "values": [
      {"measurement": "(IL-1β)-induced expression of MMP-3 mRNA, inhibition", "setting": "[1]", "value": 73, "unit": "%"},
      {"measurement": "opinion of doctor: no change", "setting": "[2]; [4]", "value": 4, "unit": "persons"},
      {"measurement": "opinion of doctor: slight improvement", "setting": "[2]; [4]", "value": 1, "unit": "person"},
      {"measurement": "opinion of patient: aggravation", "setting": "[2]; [4]", "value": 1, "unit": "person"},
      {"measurement": "opinion of patient: no change", "setting": "[2]; [4]", "value": 3, "unit": "persons"},
      {"measurement": "opinion of patient: slight improvement", "setting": "[2]; [4]", "value": 1, "unit": "person"},
      {"measurement": "resting pain score", "setting": "[2]; Group I, topical 5% DHEA twice a day, 1 week after application", "value": 15.29, "unit": "points"},
      {"measurement": "joint effusion score", "setting": "[2]; [5]", "value": 2.27, "unit": "points"},
      {"measurement": "medial joint line tenderness score", "setting": "[2]; [5]", "value": 2.54, "unit": "points"},
      {"measurement": "motion pain score", "setting": "[2]; [5]", "value": 8.51, "unit": "points"},
      {"measurement": "pain at ascending/descending stairs score", "setting": "[2]; [5]", "value": 10.49, "unit": "points"},
      {"measurement": "resting pain score", "setting": "[2]; [5]", "value": 15.02, "unit": "points"},
      {"measurement": "joint effusion score", "setting": "[2]; [6]", "value": 1.98, "unit": "points"},
      {"measurement": "medial joint line tenderness score", "setting": "[2]; [6]", "value": 2.11, "unit": "points"},
      {"measurement": "motion pain score", "setting": "[2]; [6]", "value": 8.34, "unit": "points"},
      {"measurement": "pain at ascending/descending stairs score", "setting": "[2]; [6]", "value": 10.11, "unit": "points"},
      {"measurement": "change of joint effusion", "setting": "[2]; [7]", "value": "not a significant change"},
      {"measurement": "change of medial joint line tenderness", "setting": "[2]; [7]", "value": "not a significant change"},
      {"measurement": "change of motion pain", "setting": "[2]; [7]", "value": "not a significant change"},
      {"measurement": "change of pain at ascending/descending stairs", "setting": "[2]; [7]", "value": "not a significant change"},
      {"measurement": "change of resting pain", "setting": "[2]; [7]", "value": "not a significant change"},
      {"measurement": "MMP-1 protein level (Western blot)", "setting": "MMP-1", "value": "reduced with increasing DHEA concentration"},
      {"measurement": "(IL-1β)-induced Cox-2 gene expression", "setting": "[3]", "value": "no significantly change"}
    ]}
  ]
}
